Data from patent US20260042731A1, “(2,4-DICHLOROPHENOXY)ACETIC ACID ANALOGS” (CORTEVA AGRISCIENCE LLC, priority 2022, published 2026).
Read-outs that look alike come from different tables or passages of the source.

Key:
[1] = test system: Ambrosia artemisiifolia (AMBEL), common ragweed; test: Postemergence herbicide evaluation, growth of Ambrosia artemisiifolia (AMBEL); assay type: in vivo; details: Ambrosia artemisiifolia, post-emergence, read-out: AVE. AMBEL, percent reduction in plant size relative to the untreated control; for pest or weed control at 280 g/ha: 280 g ae/ha; for pest or weed control at 560 g/ha: 560 g ae/ha
[2] = test system: Abutilon theophrasti (ABUTH), velvetleaf; test: Postemergence herbicide evaluation, growth of Abutilon theophrasti (ABUTH); assay type: in vivo; details: Abutilon theophrasti, post-emergence, read-out: AVE. ABUTH, percent reduction in plant size relative to the untreated control; for pest or weed control at 280 g/ha: 280 g ae/ha; for pest or weed control at 560 g/ha: 560 g ae/ha
[3] = test system: Amaranthus rudis (AMATA), tall water hemp; test: Postemergence herbicide evaluation, growth of Amaranthus rudis (AMATA); assay type: in vivo; details: Amaranthus tuberculatus, post-emergence, read-out: Ave. AMATA, percent reduction in plant size relative to the untreated control; for pest or weed control at 280 g/ha: 280 g ae/ha; for pest or weed control at 560 g/ha: 560 g ae/ha
[4] = test system: weeds ABUTH, AMATA, AMBEL, CHEAL, ERICA; test: Postemergence herbicide evaluation, overall average % weed control (ABUTH, AMATA, AMBEL, CHEAL, ERICA); assay type: in vivo; details: post-emergence, read-out: Overall Ave % Weed Control; for pest or weed control at 280 g/ha: 280 g ae/ha; for pest or weed control at 560 g/ha: 560 g ae/ha
[5] = Volatility of compounds measured by thermogravimetric analysis (TGA); assay type: physicochemical
[6] = test system: Chenopodium album (CHEAL), common lambsquarters; test: Postemergence herbicide evaluation, growth of Chenopodium album (CHEAL); assay type: in vivo; details: Chenopodium album, post-emergence, read-out: Ave. CHEAL, percent reduction in plant size relative to the untreated control; for pest or weed control at 280 g/ha: 280 g ae/ha; for pest or weed control at 560 g/ha: 560 g ae/ha
[7] = test system: glyphosate resistant Conyza canadensis (L.) (ERICA), horseweed; test: Postemergence herbicide evaluation, growth of Conyza canadensis (ERICA); assay type: in vivo; details: Erigeron canadensis, post-emergence, read-out: Ave. ERICA, percent reduction in plant size relative to the untreated control; for pest or weed control at 280 g/ha: 280 g ae/ha; for pest or weed control at 560 g/ha: 560 g ae/ha

| Compound | pest or weed control at 280 g/ha ([1]; 168 h, 7 DAA) [%] | pest or weed control at 560 g/ha ([1]; 168 h, 7 DAA) [%] | pest or weed control at 280 g/ha ([1]; 336 h, 14 DAA) [%] | pest or weed control at 560 g/ha ([1]; 336 h, 14 DAA) [%] | pest or weed control at 280 g/ha ([1]; 504 h, 21 DAA) [%] | pest or weed control at 560 g/ha ([1]; 504 h, 21 DAA) [%] | pest or weed control at 280 g/ha ([2]; 168 h, 7 DAA) [%] | pest or weed control at 560 g/ha ([2]; 168 h, 7 DAA) [%] | pest or weed control at 280 g/ha ([2]; 336 h, 14 DAA) [%] | pest or weed control at 560 g/ha ([2]; 336 h, 14 DAA) [%] | pest or weed control at 280 g/ha ([2]; 504 h, 21 DAA) [%] | pest or weed control at 560 g/ha ([2]; 504 h, 21 DAA) [%] | pest or weed control at 280 g/ha ([3]; 168 h, 7 DAA) [%] | pest or weed control at 560 g/ha ([3]; 168 h, 7 DAA) [%] | pest or weed control at 280 g/ha ([3]; 336 h, 14 DAA) [%] | pest or weed control at 560 g/ha ([3]; 336 h, 14 DAA) [%] | pest or weed control at 280 g/ha ([3]; 504 h, 21 DAA) [%] | pest or weed control at 560 g/ha ([3]; 504 h, 21 DAA) [%] | pest or weed control at 280 g/ha ([4]; 168 h, 7 DAA) [%] | pest or weed control at 560 g/ha ([4]; 168 h, 7 DAA) [%] | other results |
| --- | --- | --- | --- | --- | --- | --- | --- | --- | --- | --- | --- | --- | --- | --- | --- | --- | --- | --- | --- | --- | --- |
| N/C(=N\OC(=O)COc1ccc(Cl)cc1Cl)c1ccccc1 [Compound A3, N′-(2-(2,4-Dichlorophenoxy)acetoxy)benzimidamide] | 63 | 75 | 78 | 95 | 90 | 90 | 53 | 68 | 55 | 68 | 58 | 72 | 75 | 78 | 75 | 90 | 83 | 70 | 67 | 73 | pest or weed control at 280 g/ha ([4]; 336 h, 14 DAA): 75%; pest or weed control at 560 g/ha ([4]; 336 h, 14 DAA): 85%; pest or weed control at 280 g/ha ([4]; 504 h, 21 DAA): 81%; pest or weed control at 560 g/ha ([4]; 504 h, 21 DAA): 83%; TGA Data (rate of weight loss, volatility) [5]: 1 µg/min; pest or weed control at 280 g/ha ([6]; 168 h, 7 DAA): 75%; pest or weed control at 560 g/ha ([6]; 168 h, 7 DAA): 68%; pest or weed control at 280 g/ha ([6]; 336 h, 14 DAA): 83%; pest or weed control at 560 g/ha ([6]; 336 h, 14 DAA): 83%; pest or weed control at 280 g/ha ([6]; 504 h, 21 DAA): 85%; pest or weed control at 560 g/ha ([6]; 504 h, 21 DAA): 87%; pest or weed control at 280 g/ha ([7]; 168 h, 7 DAA): 68%; pest or weed control at 560 g/ha ([7]; 168 h, 7 DAA): 75%; pest or weed control at 280 g/ha ([7]; 336 h, 14 DAA): 85%; pest or weed control at 560 g/ha ([7]; 336 h, 14 DAA): 90%; pest or weed control at 280 g/ha ([7]; 504 h, 21 DAA): 90%; pest or weed control at 560 g/ha ([7]; 504 h, 21 DAA): 95% |
| N/C(=N\OC(=O)COc1ccc(Cl)cc1Cl)c1cccnc1 [Compound A4, N′-(2-(2,4-Dichlorophenoxy)acetoxy)nicotinimidamide] | 60 | 68 | 78 | 88 | 88 | 85 | 35 | 50 | 40 | 58 | 38 | 53 | 75 | 60 | 75 | 73 | 70 | 75 | 58 | 62 | pest or weed control at 280 g/ha ([4]; 336 h, 14 DAA): 68%; pest or weed control at 560 g/ha ([4]; 336 h, 14 DAA): 76%; pest or weed control at 280 g/ha ([4]; 504 h, 21 DAA): 69%; pest or weed control at 560 g/ha ([4]; 504 h, 21 DAA): 77%; TGA Data (rate of weight loss, volatility) [5]: 1 µg/min; pest or weed control at 280 g/ha ([6]; 168 h, 7 DAA): 60%; pest or weed control at 560 g/ha ([6]; 168 h, 7 DAA): 68%; pest or weed control at 280 g/ha ([6]; 336 h, 14 DAA): 63%; pest or weed control at 560 g/ha ([6]; 336 h, 14 DAA): 75%; pest or weed control at 280 g/ha ([6]; 504 h, 21 DAA): 63%; pest or weed control at 560 g/ha ([6]; 504 h, 21 DAA): 83%; pest or weed control at 280 g/ha ([7]; 168 h, 7 DAA): 60%; pest or weed control at 560 g/ha ([7]; 168 h, 7 DAA): 65%; pest or weed control at 280 g/ha ([7]; 336 h, 14 DAA): 83%; pest or weed control at 560 g/ha ([7]; 336 h, 14 DAA): 85%; pest or weed control at 280 g/ha ([7]; 504 h, 21 DAA): 88%; pest or weed control at 560 g/ha ([7]; 504 h, 21 DAA): 88% |
